Measured values published in patent US8084209B2, “HMGCR isoforms in prediction of efficacy and identification of cholesterol-modulating compounds” (Children's Hospital & Research Center Oakland, priority 2005, dated 2011).

How the values were obtained:
[1] = CAP trial: plasma lipid, lipoprotein and apoprotein response to 40 mg/day simvastatin; assay type: in vivo, human; design: LDL-Cholesterol, Absolute Difference / HDL-Cholesterol, Absolute Difference / ApoA1, Absolute Difference / ApoB, Absolute Difference / IDL-Cholesterol, Absolute Difference: unit not given here; Total Cholesterol, Absolute Difference: unit: mg/dL; settings: for ApoA1, Absolute Difference / ApoB, Absolute Difference / HDL-Cholesterol, Absolute Difference / IDL-Cholesterol, Absolute Difference / LDL-Cholesterol, Absolute Difference / Total Cholesterol, Absolute Difference: 40 mg/day simvastatin in vivo
Method: Patients and cell lines. The Cholesterol/Atherosclerosis Pharmacogenetics (CAP) trial was a non-randomized, non-blinded study of 944 African-American and Caucasian men and women age 30 or older with baseline total cholesterol of 160 to 400 mg/dL.
A subset of 66 African American patients from the CAP trial was chosen for testing of the HMGCR gene expression assay (Examples 1, 2, 3, 4 and 5). An African American was defined as an individual who had three or more grandparents who self-identified as African American. A Caucasian was defined as an individual who had three or more grandparents who self-identified as Caucasian American. The table below provides a summary of the demographics for this population.
The table below provides a summary of the population demographics.
A dose study was performed with a second subset of 60 African American patients (Examples 1, 3, 4, and 5). […] The population demographics for this group is shown below.

[2] = system: total HMGCR (6-7) transcript; experiment: HMGCR gene expression by real time PCR in immortalized lymphocyte cell lines, exons 6 to 7 assay; assay type: cell-based, human; settings: 24 hours
Method: Cell lines were grown at 37° C., 5% CO2 in RPMI Medium 1640 (Invitrogen) supplemented with 10% fetal bovine serum (Hyclone), 500 units/ml Penicillin/Streptomycin (Invitrogen) and 2 nM GlutaMAX (Invitrogen). […] Media was changed 24 hours prior to exposure to ensure the cultures were in an active growth phase. After exposure, cells were pelleted, resuspended in Trizol (Invitrogen), and stored at −80° C. until RNA extraction.
RNA isolation and cDNA synthesis. RNA was isolated from the cell/Trizol slurries following the manufacturer's protocol (Invitrogen). RNA quality was assessed by gel electrophoresis and A260/A280 measured via spectrophotometry. […]
Real time PCR standards were generated by amplifying 100 ng lymphocyte cDNA with 1×PCR buffer, 1.5 mM MgCl2, 0.5 mM dNTPs, 1 mM of each primer, and 0.125 units Taq DNA polymerase (Invitrogen). […] Eight PCR reactions for each standard was generated, pooled, and quantitated via gel electrophoresis using a DNA low mass ladder (Invitrogen). […] PCR standards were run in triplicate on each plate to serve as a positive control for the assay and to quantitate levels of gene expression.
SLC7A5 and CLPTM1 were quantitated in all samples by TaqMan assays purchased from Applied Biosystems (part numbers Hs0018526_m1 and Hs00171300_m1). […]
HMGCR(12-13) and spliced HMGCR(12-14) mRNA was quantified via real time PCR as described above.

[3] = Study Population A, African Americans, N 66
[4] = Study Population B, Caucasian Americans, N 43
[5] = Study Population C, African Americans, N 60
[6] = on statin therapy, data in Examples 1-5

CCC(C)(C)C(=O)O[C@H]1C[C@@H](C)C=C2C=C[C@H](C)[C@H](CC[C@@H]3C[C@@H](O)CC(=O)O3)[C@H]21 [simvastatin]
mean HDL-cholesterol increase ([1]; African Americans, on statin therapy): 0.96 mg/dL | mean HDL-cholesterol increase ([1]; Caucasian Americans, on statin therapy): 2.17 mg/dL | ApoA1, Absolute Difference [1, 3]: −1.69 ± 1.76 | ApoB, Absolute Difference [1, 3]: −27.11 ± 1.71 | HDL-Cholesterol, Absolute Difference [1, 3]: 0.96 ± 0.75 | IDL-Cholesterol, Absolute Difference [1, 3]: −9.06 ± 0.75 | LDL-Cholesterol, Absolute Difference [1, 3]: −51.17 ± 2.37 | Total Cholesterol, Absolute Difference [1, 3]: −54.48 ± 2.79 | ApoA1, Absolute Difference [1, 4]: −2.114 ± 2.271 | ApoB, Absolute Difference [1, 4]: −33.091 ± 2.700 | HDL-Cholesterol, Absolute Difference [1, 4]: 2.155 ± 0.904 | IDL-Cholesterol, Absolute Difference [1, 4]: −10.373 ± 1.066 | LDL-Cholesterol, Absolute Difference [1, 4]: −63.909 ± 3.455 | Total Cholesterol, Absolute Difference [1, 4]: −65.614 ± 3.791 | ApoA1, Absolute Difference [1, 5]: 2.80 ± 1.79 | ApoB, Absolute Difference [1, 5]: −28.03 ± 1.88 | HDL-Cholesterol, Absolute Difference [1, 5]: 1.98 ± 0.55 | IDL-Cholesterol, Absolute Difference [1, 5]: −10.23 ± 0.80 | LDL-Cholesterol, Absolute Difference [1, 5]: −55.74 ± 3.36 | Total Cholesterol, Absolute Difference [1, 5]: −57.73 ± 3.62 | mean IDL cholesterol reduction (printed: mean total cholesterol reduction) [1, 6]: -9.85 mg/dL | mean LDL-cholesterol reduction [1, 6]: -56.0 mg/dL | mean total cholesterol reduction [1, 6]: -58.5 mg/dL | up-regulation of HMGCR(6-7) ([2]; African American cell lines, 14.5 μM simvastatin): 1.65±0.48 fold | total HMGCR (6-7) gene up-regulation, average fold change ([2]; cell lines derived from African Americans, 1.8 μM activated simvastatin): 1.44 fold
